Earlier results on 1 molecule are cited in US20230201369A1 (THE TEXAS A&M UNIVERSITY SYSTEM, priority 2020, published 2023).

For this data set the following is noted: estimated.

Turning to `C=CCN1CC[C@]23c4c5ccc(O)c4O[C@H]2C(=O)CC[C@@]3(O)[C@H]1C5` [naloxone, 17-Allyl-4,5α-epoxy-3,14-dihydroxymorphinan-6-one], the oral bioavailability is given as 0.9-2%.
